Results as given in US20240142458A1, “FLUORESCENT PROBES FOR QUANTIFICATION OF FREE COPPER” (TECHNISCHE UNIVERSITÄT BERLIN, priority 2020, published 2024).

Tests used:
[1] = Reversibility of metal complexation upon addition of EDTA or EGTA; settings: 50 equivalents
Description: FIG. 9: Reversibility of p-H8THPPA and m-H8TPPA metal complexation. • Fluorescence of metal cation pretreated p-H8THPPA or m-H8TPPA solutions upon addition of 50 equivalents of EDTA or EGTA (⋅⋅Exc/Em.416 nm/650 nm). Data are means±S.E.M. of n=3 independent experiments. Statistically significant differences from buffer incubation (***p<0.001; two-way ANOVA/ Tukey post hoc test) or from metal cation treatment (##p<0.01; ###p<0.001; two-way ANOVA/Tukey post hoc test) are indicated.
(§1) Absorption spectra were recorded with a Tecan Infinite M200 Reader (Tecan Austria GmbH, Grödig/Salzburg, Switzerland) from 350 to 500 nm. The same device was used in fluorescence mode to measure fluorescence excitation ([…]; ⋅⋅Em. 650 nm) and fluorescence emission (550-850 nm; ⋅⋅Exc. 415 nm) spectra. 3D scanning was performed on a Spark® multimode microplate reader (Tecan Austria GmbH, Grodig/Salzburg, Switzerland) from 350 to 450 nm (Exc.) and 555 to 850 nm (Em.) with a 5 nm step size, excitation and emission bandwidths of 5 nm, and a detector gain of 100. A typical reaction mix was made by combining equal volumes of 20 μM phosphonate porphyrins diluted in assay-buffer (50 mM HEPES in bidistilled water adjusted to […] with sodium hydroxide solution; depleted of multivalent cations with Chelex® 100 Resin pretreatment^51) and a double-concentrated metal cation solution. Following 30 min incubations at 37° C. absorption or fluorescence measurements were done. For redox conversion tests the CuSO4 solutions were pretreated with 500 μM of L-ascorbic acid before admixing into the phosphonate porphyrin dilutions. To evaluate the effect of metal chelators, the metal cation-treated incubation mixtures were posttreated with 50 equivalents of EDTA or EGTA for 15 min before fluorescence emission readout.

[2] = Metal-dependent changes of absorbance and fluorescence properties, cell-free; settings: for fluorescence change by iron treatment in vitro: cell-free, FIG. 1
Description: FIG. 1: Metal-dependent changes of p-H8TPPA absorbance and fluorescence properties. • 10 μM p-H8TPPA dilutions were treated with various metal solutions (final concentration 40 μM) before recording (A) absorbance, (B) fluorescence excitation (⋅Em.650 nm) and (C) fluorescence emission (⋅⋅Exc.415 nm) spectra. Data are representative for three independent experiments.
FIG. 3: Metal-dependent changes of m-H8TPPA absorbance and fluorescence properties. • 10 μM m-H8TPPA dilutions were treated with various metal solutions (final concentration 40 μM) before recording (A) absorbance, (B) fluorescence excitation (⋅Em.650 nm) and (C) fluorescence emission (⋅⋅Exc.415 nm) spectra. Data are representative for three independent experiments.
Aiming to use arylphosphonate-tethered porphyrins as real-time cellular metal fluorescence sensors, we first characterized their metal-responsiveness under cell-free conditions. p-H8TPPA (see FIG. 1) and m-H8TPPA (see FIG. 3), were pretreated with various bivalent metal ions at a pH close to the cellular milieu (pH 7.4) before recording absorption and fluorescence spectra. […] Following Co^2+ treatment absorption spectra were less intense, plateau-shaped with a bathochromic broadening up to 434 nm. Hg^2+-treatment red-shifted the Soret band by approximately 30 nm. […] Despite of their restricted fluorescence intensity, the fluorescence emission patterns of all the aforementioned metal-treated arylphosphonate-tethered porphyrins seemed to be […] almost indistinguishable from the buffer-controls (see FIG. 1C, FIGS. 2 and 4). Zn^2+ treatment led to a declined and much more broadened Soret band in the range of 380-430 nm (see FIG. 1A). […] Thus, we assume a fluorescence quenching effect of Zn^2+ that requires further investigation.
as §1

Structure (SMILES)	response of Zn^2+ and Hg^2+ quenching to metal chelator posttreatment [1]	response of copper-induced fluorescence decrease to metal chelator posttreatment [1]	fluorescence change on binding of free divalent Cu, Zn, Pb, Hg, Cd, Co and Mn ions [2]	fluorescence change on binding of free divalent Fe, Mg and Ca ions [2]	fluorescence change by iron treatment in vitro [2]
O=P(O)(O)c1cccc(-c2c3nc(c(-c4cccc(P(=O)(O)O)c4)c4ccc([nH]4)c(-c4cccc(P(=O)(O)O)c4)c4nc(c(-c5cccc(P(=O)(O)O)c5)c5ccc2[nH]5)C=C4)C=C3)c1 [m-H8TPPA, 5,10,15,20-tetrakis [m-phenylphosphonic acid] porphyrin]	quenching was reversed	almost non-responsive	fluorescent decrease	fluorescent increase	slightly enhanced
O=P(O)(O)c1ccc(-c2c3nc(c(-c4ccc(P(=O)(O)O)cc4)c4ccc([nH]4)c(-c4ccc(P(=O)(O)O)cc4)c4nc(c(-c5ccc(P(=O)(O)O)cc5)c5ccc2[nH]5)C=C4)C=C3)cc1 [p-H8TPPA, 5,10,15,20-Tetrakis [p-phenylphosphonic acid] porphyrin]	quenching was reversed	almost non-responsive	fluorescent decrease	fluorescent increase	slightly enhanced
